How the values were obtained:
Staphylococcus aureus = experiment: Antibacterial activity, agar growth inhibition; assay type: cell-based; design: key to growth inhibition: -: no inhibition of growth; +: partial inhibition; 2+: complete inhibition; details: Gram-positive; for growth inhibition: 24 hours at 37° C.
Description: The antibacterial activity of Compounds A-E was investigated by means of incorporating the compounds into sterile tryptic soy agar (Difco) at levels of 100, 10, and 1 μg/ml. The agar was also […] with a 1:100 dilution of an 18-hour old culture of the desired bacterial species in sterile distilled water. The plates were incubated for 24 hours at 37° C. with each bacterial strain. Observations of bacterial growth inhibition were made following the appropriate incubation period.
(§1) A solvent control was included in all evaluations, as were growth controls for all bacteria species.
Comparative compounds 1-5 above were employed for comparison purposes. These compounds were tested for antibacterial activity in the same manner as the triorganotin 5-nitro-2-furoates of the present invention.
(§2) All of the bacteria tested were obtained from the culture collection of the Department of Biological Sciences, St. John's University.
The ability of Compound B to inhibit the growth of other Gram-positive bacteria, using the same test procedures as described for the antibacterial activity determined in Table III above, is illustrated in Table IV below.

Escherichia coli = experiment: Antibacterial activity, agar growth inhibition; assay type: cell-based; details: for growth inhibition: Gram-negative, 24 hours at 37° C.
Description: (§3) The agar was also needed with a 1:100 dilution of an 18-hour old culture of the desired bacterial species in sterile distilled water. The plates were incubated for 24 hours at 37° C. with each bacterial strain. Observations of bacterial growth inhibition were made following the appropriate incubation period.
as §1
(§4) These compounds were tested for antibacterial activity in the same manner as the triorganotin 5-nitro-2-furoates of the present invention.
as §2

[1] = tested on: Cladosporium carpophilium (ATCC 12117); experiment: Antifungal activity, agar plate growth inhibition; assay type: cell-based, Cladosporium carpophilum; details: for growth inhibition: 14 days
Description: (§5) Dilutions of the sterile solutions were prepared and added to liquified potato dextrose agar (Difco) to yield final concentrations of 100, 10 and 1 μg/ml. The agar, containing the appropriate organotin compound, was poured into sterile petri dishes and allowed to solidify over night. The agar surface was inoculated centrally with a 2 mm^2 portion of the growth from a ten-day-old culture of each fungus of the group consisting of Aspergillus niger, Chaetomium globosum, Cladosporium carpophilum, Fusarium moniliforme, Myrotheium verrucaria, Penicillium notatum, Rhizopus stolonifer, Trichoderma viride and Trichophyton mentagrophytes, or from a two-day-old culture of Saccharomyces cerevisiae. Inoculated plates were incubated for 14 days and observations of growth inhibition were made by measuring the diameters of the colonies present on the agar surface.
(§6) A solvent was included in all evaluations, as were growth controls for all fungal species.
(§7) The following compounds were tested for comparative purposes: [drawing 6] These compounds were tested for antifungal activity in the same manner as the triorganotin 5-nitro-2-furoates of the present invention.

[2] = tested on: Chaetomium globosum (ATCC 6205); experiment: Antifungal activity, agar plate growth inhibition; assay type: cell-based; details: 14 days
Description: as §5, §6, §7

[3] = tested on: Myrothecium verrucaria (ATCC 9095); experiment: Antifungal activity, agar plate growth inhibition; assay type: cell-based; details: 14 days
Description: as §5, §6, §7

[4] = tested on: Trichoderma viride (ATCC 8678); experiment: Antifungal activity, agar plate growth inhibition; assay type: cell-based; details: 14 days
Description: as §5, §6, §7

[5] = tested on: Saccharomyces cerevisiae (ATCC 9896); experiment: Antifungal activity, agar plate growth inhibition; assay type: cell-based; details: 14 days
Description: as §5, §6, §7

[6] = tested on: Rhizopus stolonifer (ATCC 10404); experiment: Antifungal activity, agar plate growth inhibition; assay type: cell-based; details: 14 days
Description: as §5, §6, §7

[7] = tested on: Fusarium moniliforme (ATCC 10052); experiment: Antifungal activity, agar plate growth inhibition; assay type: cell-based; details: 14 days
Description: as §5, §6, §7

[8] = tested on: Trichophyton mentagrophytes (ATCC 9129); experiment: Antifungal activity, agar plate growth inhibition; assay type: cell-based; details: 14 days
Description: as §5, §6, §7

[9] = tested on: Aspergillus niger (ATCC 12845); experiment: Antifungal activity, agar plate growth inhibition; assay type: cell-based; details: 14 days
Description: as §5, §6, §7

[10] = tested on: Penicillium notatum (ATCC 9179); experiment: Antifungal activity, agar plate growth inhibition; assay type: cell-based; details: for growth inhibition: 14 days
Description: as §5, §6, §7

Pseudomonas aeruginosa = experiment: Antibacterial activity, agar growth inhibition; assay type: cell-based; details: for growth inhibition: Gram-negative, 24 hours at 37° C.
Description: as §3, §1, §4, §2

Compound: N#CN=C(Nc1ccccc1)[O][Sn]([c]1ccccc1)([c]1ccccc1)[c]1ccccc1 [Comparative Compound 3, N--phenyl, N'--cyano-O--(triphenylstannyl)-isourea, reference compound]
- minimum concentration for complete growth inhibition (Staphylococcus aureus): 100 µg/mL
- growth inhibition (Staphylococcus aureus; 1 μg/ml): -
- growth inhibition (in words) (Escherichia coli; 100 μg/ml): inactive
- growth inhibition (Escherichia coli; 1 μg/ml): -
- growth inhibition (Escherichia coli; 10 μg/ml): -
- growth inhibition (Escherichia coli; 100 μg/ml): -
- growth inhibition ([1]; 1 μg/ml): -
- growth inhibition ([1]; 10 μg/ml): +
- growth inhibition ([1]; 100 μg/ml): +
- growth inhibition ([2]; 1 μg/ml): -
- growth inhibition ([2]; 10 μg/ml): +
- growth inhibition ([2]; 100 μg/ml): +
- growth inhibition ([3]; 1 μg/ml): +
- growth inhibition ([3]; 10 μg/ml): +
- growth inhibition ([3]; 100 μg/ml): +
- growth inhibition ([4]; 1 μg/ml): -
- growth inhibition ([4]; 10 μg/ml): -
- growth inhibition ([4]; 100 μg/ml): +
- growth inhibition ([5]; 1 μg/ml): -
- growth inhibition ([5]; 10 μg/ml): -
- growth inhibition ([5]; 100 μg/ml): 2+
- growth inhibition ([6]; 1 μg/ml): -
- growth inhibition ([6]; 10 μg/ml): +
- growth inhibition ([6]; 100 μg/ml): +
- growth inhibition ([7]; 1 μg/ml): -
- growth inhibition ([7]; 10 μg/ml): +
- growth inhibition ([7]; 100 μg/ml): +
- growth inhibition ([8]; 1 μg/ml): +
- growth inhibition ([8]; 10 μg/ml): +
- growth inhibition ([8]; 100 μg/ml): 2+
- growth inhibition ([9]; 1 μg/ml): -
- growth inhibition ([9]; 10 μg/ml): +
- growth inhibition ([9]; 100 μg/ml): +
- growth inhibition ([10]; 1 μg/ml): -
- growth inhibition ([10]; 10 μg/ml): +
- growth inhibition ([10]; 100 μg/ml): +

Compound: Tricyclohexyltin 5-nitro-2-furoate [Compound C]
- growth inhibition (Pseudomonas aeruginosa; 1 μg/ml): -
- growth inhibition (Pseudomonas aeruginosa; 10 μg/ml): -
- growth inhibition (Pseudomonas aeruginosa; 100 μg/ml): -
- growth inhibition (Escherichia coli; 1 μg/ml): -
- growth inhibition (Escherichia coli; 10 μg/ml): -
- growth inhibition (Escherichia coli; 100 μg/ml): -
- growth inhibition ([1]; 1 μg/ml): +
- growth inhibition ([1]; 10 μg/ml): +
- growth inhibition ([1]; 100 μg/ml): +
- growth inhibition ([2]; 1 μg/ml): +
- growth inhibition ([2]; 10 μg/ml): +
- growth inhibition ([2]; 100 μg/ml): +
- growth inhibition ([3]; 1 μg/ml): +
- growth inhibition ([3]; 10 μg/ml): +
- growth inhibition ([3]; 100 μg/ml): +
- growth inhibition ([4]; 1 μg/ml): +
- growth inhibition ([4]; 10 μg/ml): +
- growth inhibition ([4]; 100 μg/ml): +
- growth inhibition ([5]; 1 μg/ml): -
- growth inhibition ([5]; 10 μg/ml): -
- growth inhibition ([5]; 100 μg/ml): -
- growth inhibition ([6]; 1 μg/ml): -
- growth inhibition ([6]; 10 μg/ml): +
- growth inhibition ([6]; 100 μg/ml): +
- growth inhibition ([7]; 1 μg/ml): +
- growth inhibition ([7]; 10 μg/ml): +
- growth inhibition ([7]; 100 μg/ml): +
- growth inhibition ([8]; 1 μg/ml): +
- growth inhibition ([8]; 10 μg/ml): +
- growth inhibition ([8]; 100 μg/ml): +
- growth inhibition ([9]; 1 μg/ml): +
- growth inhibition ([9]; 10 μg/ml): +
- growth inhibition ([9]; 100 μg/ml): +
- growth inhibition ([10]; 1 μg/ml): +
- growth inhibition ([10]; 10 μg/ml): +
- growth inhibition ([10]; 100 μg/ml): 2+

Compound: N#CN=C(Nc1ccccc1)[S][Sn]([c]1ccccc1)([c]1ccccc1)[c]1ccccc1 [compound 2, N--phenyl, N'--cyano-S--(triphenylstannyl)-isothiourea, reference compound]
- growth inhibition (in words) (Escherichia coli; 100 μg/ml): partially
- growth inhibition (Escherichia coli; 1 μg/ml): -
- growth inhibition (Escherichia coli; 10 μg/ml): -
- growth inhibition ([1]; 1 μg/ml): -
- growth inhibition ([1]; 10 μg/ml): -
- growth inhibition ([1]; 100 μg/ml): -
- growth inhibition ([2]; 1 μg/ml): -
- growth inhibition ([2]; 10 μg/ml): +
- growth inhibition ([2]; 100 μg/ml): +
- growth inhibition ([3]; 1 μg/ml): -
- growth inhibition ([3]; 10 μg/ml): +
- growth inhibition ([3]; 100 μg/ml): +
- growth inhibition ([4]; 1 μg/ml): -
- growth inhibition ([4]; 10 μg/ml): -
- growth inhibition ([4]; 100 μg/ml): +
- growth inhibition ([5]; 1 μg/ml): -
- growth inhibition ([5]; 10 μg/ml): -
- growth inhibition ([5]; 100 μg/ml): -
- growth inhibition ([6]; 1 μg/ml): -
- growth inhibition ([6]; 10 μg/ml): +
- growth inhibition ([6]; 100 μg/ml): 2+
- growth inhibition ([7]; 1 μg/ml): -
- growth inhibition ([7]; 10 μg/ml): +
- growth inhibition ([7]; 100 μg/ml): +
- growth inhibition ([8]; 1 μg/ml): -
- growth inhibition ([8]; 10 μg/ml): +
- growth inhibition ([8]; 100 μg/ml): +
- growth inhibition ([9]; 1 μg/ml): -
- growth inhibition ([9]; 10 μg/ml): +
- growth inhibition ([9]; 100 μg/ml): 2+
- growth inhibition ([10]; 1 μg/ml): -
- growth inhibition ([10]; 10 μg/ml): +
- growth inhibition ([10]; 100 μg/ml): +

Compound: N--nitrophenyl, N--(triphenylstannyl) cyanamide [compound 1, reference compound]
- growth inhibition ([1]; 1 μg/ml): +
- growth inhibition ([1]; 10 μg/ml): +
- growth inhibition ([1]; 100 μg/ml): +
- growth inhibition ([2]; 1 μg/ml): +
- growth inhibition ([2]; 10 μg/ml): +
- growth inhibition ([2]; 100 μg/ml): 2+
- growth inhibition ([3]; 1 μg/ml): +
- growth inhibition ([3]; 10 μg/ml): +
- growth inhibition ([3]; 100 μg/ml): +
- growth inhibition ([4]; 1 μg/ml): -
- growth inhibition ([4]; 10 μg/ml): +
- growth inhibition ([4]; 100 μg/ml): +
- growth inhibition ([5]; 1 μg/ml): -
- growth inhibition ([5]; 10 μg/ml): -
- growth inhibition ([5]; 100 μg/ml): +
- growth inhibition ([6]; 1 μg/ml): +
- growth inhibition ([6]; 10 μg/ml): +
- growth inhibition ([6]; 100 μg/ml): +
- growth inhibition ([7]; 1 μg/ml): +
- growth inhibition ([7]; 10 μg/ml): +
- growth inhibition ([7]; 100 μg/ml): +
- growth inhibition ([8]; 1 μg/ml): +
- growth inhibition ([8]; 10 μg/ml): +
- growth inhibition ([8]; 100 μg/ml): 2+
- growth inhibition ([9]; 1 μg/ml): +
- growth inhibition ([9]; 10 μg/ml): +
- growth inhibition ([9]; 100 μg/ml): +
- growth inhibition ([10]; 1 μg/ml): +
- growth inhibition ([10]; 10 μg/ml): +
- growth inhibition ([10]; 100 μg/ml): +

Compound: Trimethyltin 5-nitro-2-furoate [Compound E]
- growth inhibition (Staphylococcus aureus; 1 μg/ml): -
- growth inhibition (Staphylococcus aureus; 10 μg/ml): -
- activity towards the Gram-negative bacterium (in words) (Pseudomonas aeruginosa): showed activity
- growth inhibition (Pseudomonas aeruginosa; 1 μg/ml): -
- growth inhibition (Pseudomonas aeruginosa; 10 μg/ml): -
- activity towards the Gram-negative bacterium (in words) (Escherichia coli): showed activity
- growth inhibition (in words) (Escherichia coli; 100 μg/ml): completely inhibited
- growth inhibition (Escherichia coli; 1 μg/ml): -
- growth inhibition (Escherichia coli; 10 μg/ml): -
- growth inhibition ([1]; 1 μg/ml): +
- growth inhibition (in words) ([1]; 10 μg/ml): completely inhibited
- growth inhibition ([1]; 10 μg/ml): 2+
- growth inhibition ([1]; 100 μg/ml): 2+
- growth inhibition ([2]; 1 μg/ml): -
- growth inhibition ([2]; 10 μg/ml): +
- growth inhibition ([2]; 100 μg/ml): +
- growth inhibition ([3]; 1 μg/ml): +
- growth inhibition ([3]; 10 μg/ml): +
- growth inhibition ([3]; 100 μg/ml): 2+
- growth inhibition ([4]; 1 μg/ml): +
- growth inhibition ([4]; 10 μg/ml): +
- growth inhibition ([4]; 100 μg/ml): +
- growth inhibition ([5]; 1 μg/ml): -
- growth inhibition ([5]; 10 μg/ml): -
- growth inhibition ([5]; 100 μg/ml): -
- growth inhibition ([6]; 1 μg/ml): +
- growth inhibition ([6]; 10 μg/ml): +
- growth inhibition ([6]; 100 μg/ml): +
- growth inhibition ([7]; 1 μg/ml): -
- growth inhibition ([7]; 10 μg/ml): +
- growth inhibition ([7]; 100 μg/ml): +
- growth inhibition ([8]; 1 μg/ml): +
- growth inhibition ([8]; 10 μg/ml): +
- growth inhibition ([8]; 100 μg/ml): +
- growth inhibition ([9]; 1 μg/ml): -
- growth inhibition ([9]; 10 μg/ml): +
- growth inhibition ([9]; 100 μg/ml): +
- growth inhibition ([10]; 1 μg/ml): -
- growth inhibition ([10]; 10 μg/ml): +
- growth inhibition (in words) ([10]; 100 μg/ml): completely inhibited
- growth inhibition ([10]; 100 μg/ml): 2+

From patent US4497806A, “Triorganotin compounds, antifungal and antibacterial compositions containing same, and method of using same” (priority 1983, dated 1985)
